Reference: US10669537B2, “Mutagenizing intracellular nucleic acids” (priority 2016, dated 2020)
Where two headings read alike, the source gives them in different places.

What was measured:
[1] = system: Saccharomyces cerevisiae BY4741 URA3+; experiment: 5-FOA resistance frequency after URA3 mutagenesis; type: cell-based; conditions: one cycle of URA3 soft-randomized oligo pool mutagenesis; 5-FOA SD agar plates
Source text: To perform mutagenesis without necessitating additional genomic modifications and thus keeping the flexibility of the prokaryotic, pORTMAGE-based approach, the wild-type yeast homologous recombination system was employed to set-up overlapping, soft-randomized oligo pool-mediated mutagenesis. As the target, the endogenous URA3 gene in Saccharomyces cerevisiae BY4741 URA3+(SEQ ID NO:221), encoding orotidine 5-phosphate decarboxylase was chosen. Loss-of-function URA3 mutants can be readily selected based on their 5-Fluoroorotic Acid (5-FOA)-resistant phenotype on 5-FOA containing agar plates (DiCarlo et al. 2013). Therefore, mutagenesis was assayed as the fraction of resistant cells towards 5-FOA in diversified cell populations compared with the frequency of an unmutagenized control. Using 11 overlapping spiked oligo pools (SEQ ID NO:200-SEQ ID NO:210), a single overlapping, soft-randomized oligo pool-mediated mutagenesis cycle was performed.
Specifically, overlapping, soft-randomized oligos for S. cerevisiae URA3 were designed to target the non-coding strand of URA3 (YEL021W, SEQ ID NO:221). Spiked oligonucleotides were synthesized as described in Example 1. Yeast-mutagenesis was performed by delivering oligonucleotides to S. cerevisiae BY4741 URA3+ cells by electroporation. […] As the next step, URA3 mutagenesis was assessed by measuring 5-fluoroorotic acid (5-FOA) resistance frequency. […]

[2] = system: E. coli K-12 MG1655; conditions: L28R
Procedure: As a measure of the effect of each individual genotype, relative IC75 values for each of the corresponding mutants were determined and compared to the IC75 of the wild-type.

[3] = system: parental Escherichia coli K-12 MG 1655
Procedure: Subsequently, the genotype of around 1000 resistant mutants was determined by High-Throughput (HT) SMRT sequencing.

[4] = system: E. coli K-12 MG1655; type: cell-based, Escherichia coli; conditions: ciprofloxacin two-fold higher than wild-type MIC, LB agar
Procedure: All four constituents were mutagenized along the full lengths of their corresponding protein-coding DNA regions in their native genomic context. Accordingly, a single round of rMAGE mutagenesis was performed in E. coli K-12 MG1655, using SEQ ID NO:37-SEQ ID NO:167.
However, ciprofloxacin also has lower binding affinity to the homologous DNA topoisomerase IV complex (Khodursky, Zechiedrich, and Cozzarelli 1995). Therefore, mutagenesis at the target sites was assayed by a ciprofloxacin frequency-of-resistance assay.

Which “upregulation of the fraction of 5-FOA resistant cells compared to background level” value [1] does the source give for `O=C(O)c1[nH]c(=O)[nH]c(=O)c1F` [5-FOA, 5-Fluoroorotic Acid] here?
Its value is 77 fold.

Which results are given for `COc1cc(Cc2cnc(N)nc2N)cc(OC)c1OC` [Trimethoprim, trimethoprim]?
Trimethoprim IC75 value ([2]; strain E. coli MG1655 1, folA C-58T, A26T, P39R): 1162 µg/mL; Trimethoprim IC75 value ([2]; strain E. coli MG1655 2, folA C-58T, A26T, P39R): 1162 µg/mL; Trimethoprim IC75 value ([2]; strain E. coli MG1655 3, folA C-58T, A26T, P39R): 1346 µg/mL; Trimethoprim IC75 value ([2]; strain E. coli MG1655 4, folA C-58T, A26T, P39R): 1254 µg/mL; Trimethoprim IC75 value ([2]; strain E. coli MG1655 5, folA C-58T, A26T, P39R): 1162 µg/mL; Trimethoprim IC75 value ([2]; strain E. coli MG1655 6, folA C-58T, A26T, P39R): 1254 µg/mL; Trimethoprim IC75 value ([2]; strain E. coli MG1655 7, folA C-58T): 448 µg/mL; Trimethoprim IC75 value ([2]; strain E. coli MG1655 8, folA C-58T, T-74A, N147D): 448 µg/mL; Trimethoprim IC75 value ([2]; strain E. coli MG1655 9, folA C-58T): 610 µg/mL; Trimethoprim IC75 value ([2]; strain E. coli MG1655 10, folA C-58T): 610 µg/mL; Trimethoprim IC75 value ([2]; strain E. coli MG1655 11, folA C-58T): 518 µg/mL; Trimethoprim IC75 value ([2]; strain E. coli MG1655 12, folA C-43T, C-58T, A26D, H45R): 794 µg/mL; growth on trimethoprim solid media [3]: cannot grow

Which “frequency of ciprofloxacin resistant variants” value ([4]; cell population mutagenized at gyrA, gyrB, parC, parE) does the source give for `O=C(O)c1cn(C2CC2)c2cc(N3CCNCC3)c(F)cc2c1=O` [ciprofloxacin] here?
Its value is 10^−4.

What about the “frequency of ciprofloxacin resistant variants” value ([4]; non-mutagenised control cell populations) of the same molecule?
The value was 1.83*10^−7.
